We go through 31 compounds from patent publication US7858620B2, “Cyanoisoquinoline” (H. Lundbeck A/S, priority 2007, dated 2010).

Each structure is given as a SMILES string.

T1 sequence (Q9Y233 716-1055): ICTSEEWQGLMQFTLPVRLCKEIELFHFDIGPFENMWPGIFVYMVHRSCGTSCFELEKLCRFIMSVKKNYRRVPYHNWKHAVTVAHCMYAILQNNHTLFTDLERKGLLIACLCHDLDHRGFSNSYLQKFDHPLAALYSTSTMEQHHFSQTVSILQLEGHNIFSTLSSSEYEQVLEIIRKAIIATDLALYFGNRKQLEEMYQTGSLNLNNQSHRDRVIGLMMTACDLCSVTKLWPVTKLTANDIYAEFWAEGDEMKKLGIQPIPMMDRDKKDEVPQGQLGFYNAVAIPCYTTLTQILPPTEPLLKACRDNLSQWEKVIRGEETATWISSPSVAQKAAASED

This test addresses T1, PDE10A enzyme (Homo sapiens, UniProt Q9Y233).
T1 construct: made in house; host or cells: E. coli BL21(DE3)
Nature of the test: PDE10A inhibition assay, SPA. The format is biochemical. As to conditions: column head 2,1334003; unit inferred, nM. As to the method:
Active PDE10A enzyme is prepared in a number of ways for use in PDE assays (Loughney, K. et al. Gene 1999, 234, 109-117; Fujishige, K. et al. Eur J Biochem. 1999, 266, 1118-1127 and Soderling, S. et al. Proc. Natl. Acad. Sci. 1999, 96, 7071-7076). PDE10A can be expressed as full-length proteins or as truncated proteins, as long as they express the catalytic domain. PDE10A can be prepared in different cell types, for example insect cells or E. coli. An example of a method to obtain catalytically active PDE10A is as follows: The catalytic domain of human PDE10A (amino acids 440-779 from the sequence with accession number NP 006652) is amplified from total human brain total RNA by standard RT-PCR and is cloned into the BamH1 and Xho1 sites of the pET28a vector (Novagen). Expression in coli is performed according to standard protocols. Briefly, the expression plasmids are transformed into the BL21(DE3) E. coli strain, and 50 mL cultures inoculated with the cells allowed to grow to an OD600 of 0.4-0.6 before protein expression is induced with 0.5 mM IPTG. Following induction, the cells are incubated overnight at room temperature, after which the cells are collected by centrifugation. Cells expressing PDE10A are resuspended in 12 mL (50 mM TRIS-HCl-pH8.0, 1 mM MgCl2 and protease inhibitors). The cells are lysed by sonication, and after all cells are lysed, TritonX100 is added according to Novagen protocols.
PDE10A and Pde3A assays can for example be performed as follows: PDE10A and Pde3A assays are performed in 60 uL samples containing a fixed amount of the relevant PDE enzyme (sufficient to convert 20-25% of the cyclic nucleotide substrate), a buffer (50 mM HEPES7.6; 10 mM MgCl2; 0.02% Tween20), 0.1 mg/ml BSA, 225 pCi of ^3H-labelled cyclic nucleotide substrate, tritium labeled cAMP to a final concentration of 5 nM and varying amounts of inhibitors. Reactions are initiated by addition of the cyclic nucleotide substrate, and reactions are allowed to proceed for one hr at room temperature before being terminated through mixing with 15 uL 8 mg/mL yttrium silicate SPA beads (Amersham). The beads are allowed to settle for one hr in the dark before the plates are counted in a Wallac 1450 Microbeta counter. The measured signal can be converted to activity relative to an uninhibited control (100%) and IC50 values can be calculated using the Xlfit extension to EXCEL.
In the case of `COc1cc2c(N3CCNC(c4ccc5c(c4)OCO5)C3)nc(C)c(C#N)c2cc1OC` (stereo not shown) [Compound 43, 1-(3-Benzo[1,3]dioxol-5-yl-piperazin-1-yl)-6,7-dimethoxy-3-methyl-isoquinoline-4-carbonitrile], the IC50 amounted to 510 nM.

In turn, `COc1cc2c(C#N)cnc(N3CCNC(c4ccc5ccccc5c4)C3)c2cc1OC` (stereo not shown) [Compound 10, 6,7-Dimethoxy-1-(3-naphthalen-2-yl-piperazin-1-yl)-isoquinoline-4-carbonitrile] came in with an IC50 of 73 nM.

Turning to `COc1cc2c(C#N)cnc(N3CCNC(c4ccc(Cl)cc4)C3)c2cc1OC` (stereo not shown) [Compound 30, 1-[3-(4-Chloro-phenyl)-piperazin-1-yl]-6,7-dimethoxy-isoquinoline-4-carbonitrile], the concentration for half-maximal inhibition (IC50) was 700 nM.

`COc1ccc(C2CN(c3nc(C)c(C#N)c4cc(OC)c(OC)cc34)CCO2)cc1` (stereo not shown) [Compound 39, 6,7-Dimethoxy-1-[2-(4-methoxy-phenyl)-morpholin-4-yl]-3-methyl-isoquinoline-4-carbonitrile]: the midpoint of inhibition, the IC50, lay at 930 nM.

Take `COc1ccc(C2CN(c3ncc(C#N)c4cc(OC)c(OC)cc34)CCN2)cc1` (stereo not shown) [Compound 5, 6,7-Dimethoxy-1-[3-(4-methoxy-phenyl)-piperazin-1-yl]-isoquinoline-4-carbonitrile]: the midpoint of inhibition, the IC50, lay at 54 nM.

As for `COc1cc2c(C#N)cnc(N3CCNC(c4ccc(N(C)C)cc4)C3)c2cc1OC` (stereo not shown) [Compound 7, 1-[3-(4-Dimethylamino-phenyl)-piperazin-1-yl]-6,7-dimethoxy-isoquinoline-4-carbonitrile], half-maximal inhibition (IC50) was put at 76 nM.

As for `COc1cccc(C2CN(c3ncc(C#N)c4cc(OC)c(OC)cc34)CCN2)c1` (stereo not shown) [Compound 2, 6,7-Dimethoxy-1-[3-(3-methoxy-phenyl)-piperazin-1-yl]-isoquinoline-4-carbonitrile], the half-inhibitory concentration (IC50) worked out at 320 nM.

As for `COc1cccc(C2CN(c3ncc(C#N)c4cc(OC)c(OC)cc34)CCN2)c1` (single isomer, unassigned; (-)) [Compound 24, (−)-6,7-Dimethoxy-1-[3-(3-methoxy-phenyl)-piperazin-1-yl]-isoquinoline-4-carbonitrile], the half-maximal inhibitory concentration (IC50) is 27 nM.

The compound `COc1cc2c(C#N)cnc(N3CCNC(c4ccc(OCC(C)C)cc4)C3)c2cc1OC` (stereo not shown) [Compound 67, 1-[3-(4-Isobutoxy-phenyl)-piperazin-1-yl]-6,7-dimethoxy-isoquinoline-4-carbonitrile] showed a concentration for half-maximal inhibition (IC50) of 1100 nM.

Compound `CCc1ccc(C2CN(c3ncc(C#N)c4cc(OC)c(OC)cc34)CCN2)cc1` (stereo not shown) [Compound 46, 1-[3-(4-Ethyl-phenyl)-piperazin-1-yl]-6,7-dimethoxy-isoquinoline-4-carbonitrile] displayed an IC50 of 1300 nM.

Consider `COc1cccc(C2CN(c3ncc(C#N)c4cc(OC)c(OC)cc34)CCN2)c1` (single isomer, unassigned; (+)) [Compound 23, (+)-6,7-Dimethoxy-1-[3-(3-methoxy-phenyl)-piperazin-1-yl]-isoquinoline-4-carbonitrile], for which it took 1300 nM to reach half-maximal inhibition (IC50).

As for `COc1cc2c(N3CCN[C@@H](c4ccccc4)C3)nc(C)c(C#N)c2cc1OC` [Compound 49, 6,7-Dimethoxy-3-methyl-1-((S)-3-phenyl-piperazin-1-yl)-isoquinoline-4-carbonitrile], it took 460 nM to reach half-maximal inhibition (IC50).

With `COc1cc2c(C#N)cnc(N3CCNC(c4ccccc4OC)C3)c2cc1OC` (stereo not shown) [Compound 6, 6,7-Dimethoxy-1-[3-(2-methoxy-phenyl)-piperazin-1-yl]-isoquinoline-4-carbonitrile], the IC50 is 420 nM.

For the compound `COc1cc2c(C#N)cnc(N3CCNC(c4ccc5c(c4)OCCO5)C3)c2cc1OC` (stereo not shown) [Compound 66, 1-[3-(2,3-Dihydro-benzo[1,4]dioxin-6-yl)-piperazin-1-yl]-6,7-dimethoxy-isoquinoline-4-carbonitrile], the 50% inhibitory concentration (IC50) amounted to 130 nM.

`COc1cc2c(C#N)cnc(N3CCN[C@H](c4ccccc4)C3)c2cc1OC` [Compound 52, 6,7-Dimethoxy-1-(®-3-phenyl-piperazin-1-yl)-isoquinoline-4-carbonitrile] displayed an IC50 of 210 nM.

`COc1cc2c(N3CCNC(c4ccccc4OC)C3)nc(C)c(C#N)c2cc1OC` (stereo not shown) [Compound 42, 6,7-Dimethoxy-1-[3-(2-methoxy-phenyl)-piperazin-1-yl]-3-methyl-isoquinoline-4-carbonitrile] gave an IC50 of 1400 nM.

As to `COc1ccc2cc(C3CN(c4nc(C)c(C#N)c5cc(OC)c(OC)cc45)CCN3)ccc2c1` (stereo not shown) [Compound 38, 6,7-Dimethoxy-1-[3-(6-methoxy-naphthalen-2-yl)-piperazin-1-yl]-3-methyl-isoquinoline-4-carbonitrile], 980 nM corresponded to half-maximal inhibition (IC50).

With `COc1cc2c(C#N)cnc(N3CCNC(c4cccc(Cl)c4)C3)c2cc1OC` (stereo not shown) [Compound 26, 1-[3-(3-Chloro-phenyl)-piperazin-1-yl]-6,7-dimethoxy-isoquinoline-4-carbonitrile], the concentration for half-maximal inhibition (IC50) is 390 nM.

Take `COc1cc2c(N3CCNC(c4ccc5ccccc5c4)C3)nc(C)c(C#N)c2cc1OC` (stereo not shown) [Compound 33, 6,7-Dimethoxy-3-methyl-1-(3-naphthalen-2-yl-piperazin-1-yl)-isoquinoline-4-carbonitrile]: the IC50 came out at 2100 nM.

Regarding `COc1cc2c(C#N)cnc(N3CCNC(c4ccc(C)cc4)C3)c2cc1OC` (stereo not shown) [Compound 25, 6,7-Dimethoxy-1-(3-p-tolyl-piperazin-1-yl)-isoquinoline-4-carbonitrile], the IC50 was 300 nM.

Turning to `COc1cc2c(C#N)cnc(N3CCSC(c4ccccc4)C3)c2cc1OC` (stereo not shown) [Compound 29, 6,7-Dimethoxy-1-(2-phenyl-thiomorpholin-4-yl)-isoquinoline-4-carbonitrile], half-maximal inhibition (IC50) was put at 2500 nM.

Take `COc1cc2c(C#N)cnc(N3CCOC(c4ccc(C)cc4)C3)c2cc1OC` (stereo not shown) [Compound 19, 6,7-Dimethoxy-1-(2-p-tolyl-morpholin-4-yl)-isoquinoline-4-carbonitrile]: half-maximal inhibition (IC50) required 580 nM.

As to `COc1ccc([C@H]2CN(c3ncc(C#N)c4cc(OC)c(OC)cc34)CCN2)cc1` [Compound 62, 6,7-Dimethoxy-1-[(S)-3-(4-methoxy-phenyl)-piperazin-1-yl]-isoquinoline-4-carbonitrile], the concentration for half-maximal inhibition (IC50) came to 47 nM.

`COc1cc2c(C#N)cnc(N3CCNC(c4ccc(N5CCOCC5)cc4)C3)c2cc1OC` (stereo not shown) [Compound 16, 6,7-Dimethoxy-1-[3-(4-morpholin-4-yl-phenyl)-piperazin-1-yl]-isoquinoline-4-carbonitrile]: 76 nM corresponded to half-maximal inhibition (IC50).

Compound `COc1ccc2cc(C3CN(c4ncc(C#N)c5cc(OC)c(OC)cc45)CCN3)ccc2c1` (stereo not shown) [Compound 28, 6,7-Dimethoxy-1-[3-(6-methoxy-naphthalen-2-yl)-piperazin-1-yl]-isoquinoline-4-carbonitrile] came in with an IC50 of 330 nM.

On to `COc1cc2c(C#N)cnc(N3CCNC(c4ccc(OC(F)(F)F)cc4)C3)c2cc1OC` (stereo not shown) [Compound 60, 6,7-Dimethoxy-1-[3-(4-trifluoromethoxy-phenyl)-piperazin-1-yl]-isoquinoline-4-carbonitrile], for which the half-inhibitory concentration (IC50) is 2300 nM.

`COc1ccc(OC)c(C2CN(c3nc(C)c(C#N)c4cc(OC)c(OC)cc34)CCN2)c1` (stereo not shown) [Compound 36, 1-[3-(2,5-Dimethoxy-phenyl)-piperazin-1-yl]-6,7-dimethoxy-3-methyl-isoquinoline-4-carbonitrile] registered an IC50 of 960 nM.

For the compound `COc1cc2c(C#N)cnc(N3CCNC(c4ccc(Br)cc4)C3)c2cc1OC` (stereo not shown) [Compound 27, 1-[3-(4-Bromo-phenyl)-piperazin-1-yl]-6,7-dimethoxy-isoquinoline-4-carbonitrile], the IC50 stood at 510 nM.

`COc1ccc([C@@H]2CN(c3ncc(C#N)c4cc(OC)c(OC)cc34)CCN2)cc1` [Compound 61, 6,7-Dimethoxy-1-[(R)-3-(4-methoxy-phenyl)-piperazin-1-yl]-isoquinoline-4-carbonitrile] yielded a 50% inhibitory concentration (IC50) of 1200 nM.

`COc1cc2c(N3CCNC(c4ccc(N(C)C)cc4)C3)nc(C)c(C#N)c2cc1OC` (stereo not shown) [Compound 47, 1-[3-(4-Dimethylamino-phenyl)-piperazin-1-yl]-6,7-dimethoxy-3-methyl-isoquinoline-4-carbonitrile] registered a half-inhibitory concentration (IC50) of 1200 nM.

Compound `COc1cc2c(N3CCNC(c4ccc(N5CCOCC5)cc4)C3)nc(C)c(C#N)c2cc1OC` (stereo not shown) [Compound 51, 6,7-Dimethoxy-3-methyl-1-[3-(4-morpholin-4-yl-phenyl)-piperazin-1-yl]-isoquinoline-4-carbonitrile] showed a half-maximal inhibitory concentration (IC50) of 1500 nM.

What is called IC50 is the concentration at which inhibition is half-maximal. A higher IC50 goes with weaker potency in that assay.
